The values below come from patent publication US20070128217A1 (priority 2003, published 2007).

Assay [1] relates to antibodies in sera from SARS patients (sera 1a, 1b, 2, 6, 37, 62, London, SARS-yellow, SARS-green). The assay is classed as binding, human. On the set-up: Binding of serum 6 to linear peptides of protein X1 of SARS-CoV Urbani / Binding of serum 37 to linear peptides of protein X1 of SARS-CoV Urbani / Binding of serum 6 to looped/cyclic peptide (PEPSCAN-ELISA) / Binding of serum 37 to looped/cyclic peptide (PEPSCAN-ELISA) / Binding of serum 37 to looped/cyclic peptides of protein X1 of SARS-CoV Urbani / Binding of serum 6 to linear peptides of protein X2 / Binding of serum 37 to linear peptides of protein X2 / Binding of serum 37 to looped/cyclic peptides of protein X2 of SARS-CoV Urbani / Binding of serum 6 to linear peptides of protein M of SARS-CoV Urbani / Binding of serum 37 to linear peptides of protein M of SARS-CoV Urbani / Binding of serum 6 to looped/cyclic peptides of protein M of SARS-CoV Urbani / Binding of serum 37 to looped/cyclic peptides of protein M of SARS-CoV Urbani / Binding of serum 6 to linear peptides of protein X3 of SARS-CoV Urbani / Binding of serum 37 to linear peptides of protein X3 of SARS-CoV Urbani / Binding of serum 37 to looped/cyclic peptides of protein X3 of SARS-CoV Urbani / Binding of serum 6 to linear peptides of protein X4 of SARS-CoV Urbani / Binding of serum 37 to linear peptides of protein X4 of SARS-CoV Urbani / Binding of serum 37 to looped/cyclic peptides of protein X4 of SARS-CoV Urbani / Binding of serum 6 to linear peptides of protein X5 of SARS-CoV Urbani / Binding of serum 37 to linear peptides of protein X5 of SARS-CoV Urbani / Binding of serum 37 to looped/cyclic peptides of protein X5 of SARS-CoV Urbani / Binding of serum 6 to linear peptides of protein N of SARS-CoV Urbani / Binding of serum 37 to linear peptides of protein N of SARS-CoV Urbani / Binding of serum 6 to linear peptide (PEPSCAN-ELISA) / Binding of serum 1a to looped/cyclic peptides of protein N of SARS-CoV Urbani / Binding of serum 1b to looped/cyclic peptides of protein N of SARS-CoV Urbani / Binding of serum 2 to looped/cyclic peptides of protein N of SARS-CoV Urbani / Binding of serum 6 to looped/cyclic peptides of protein N of SARS-CoV Urbani / Binding of serum 37 to looped/cyclic peptides of protein N of SARS-CoV Urbani / Binding of serum 62 to looped/cyclic peptides of protein N of SARS-CoV Urbani / Binding of serum London to looped/cyclic peptides of protein N of SARS-CoV Urbani / Binding of serum SARS-green to looped/cyclic peptides of protein N of SARS-CoV Urbani: unit not given here.

The test system of assay [2] is control sera (pooled serum of ten healthy LUMC hospital workers; commercial negative donor pooled serum from the Dutch bloodbank). The assay is classed as binding, human. Also on record: Binding of Control serum LUMC to linear peptides / Binding of Control serum Blood-bank to linear peptides / Binding of Control serum LUMC to looped peptides / Binding of Control Serum Blood-Bank to Looped peptides / Binding of Control serum LUMC to linear peptides of the protein M of SARS-CoV Urbani / Binding of Control serum Blood-bank to linear peptides of the protein M of SARS-CoV Urbani / Binding of Control serum LUMC to looped peptides of the protein M of SARS-CoV Urbani / Binding of Control Serum Blood-Bank to Looped peptides of the protein M of SARS-CoV Urbani: unit not given here.

The test system of assay [3] is rabbit serum obtained by immunizing a rabbit with the SARS-CoV strain Frankfurt 1. The assay is classed as binding. Also on record: Binding of a rabbit serum to linear peptides / Binding of a rabbit serum to looped peptides / Rabbit serum linear peptides / Rabbit serum looped peptides / Binding of a rabbit serum to linear peptides of protein N of SARS-CoV Urbani (Rabbit serum linear peptides) / Binding of a rabbit serum to looped/cyclic peptides of protein N of SARS-CoV Urbani (Rabbit serum looped peptides): unit not given here.

PLMESELVIGAVIIR: in assay [1], the “Binding of serum 1a to linear peptides of protein M of SARS-CoV Urbani” value was found to be 0.7, the “Binding of serum 1a to looped/cyclic peptides of protein M of SARS-CoV Urbani” value is listed as 0.7, the “Binding of serum 1b to linear peptides of protein M of SARS-CoV Urbani” value came out at 0.6 and the “Binding of serum 1b to looped/cyclic peptides of protein M of SARS-CoV Urbani” value is 0.6. Moreover, in assay [1], the “Binding of serum 2 to linear peptides of protein M of SARS-CoV Urbani” value worked out at 0.7, the “Binding of serum 2 to looped/cyclic peptides of protein M of SARS-CoV Urbani” value is 0.7, the “Binding of serum 6 to linear peptides of protein M of SARS-CoV Urbani” value is 0.4 and the “Binding of serum 6 to looped/cyclic peptides of protein M of SARS-CoV Urbani” value amounted to 0.8. Further, in assay [1], the “Binding of serum 37 to linear peptides of protein M of SARS-CoV Urbani” value was found to be 0.7, the “Binding of serum 37 to looped/cyclic peptides of protein M of SARS-CoV Urbani” value is recorded as 0.8, the “Binding of serum 62 to linear peptides of protein M of SARS-CoV Urbani” value was 0.5 and the “Binding of serum 62 to looped/cyclic peptides of protein M of SARS-CoV Urbani” value is 0.8. In assay [1], the “Binding of serum London to linear peptides of protein M of SARS-CoV Urbani” value was 0.3, the “Binding of serum London to looped/cyclic peptides of protein M of SARS-CoV Urbani” value was found to be 0.2, the “Binding of serum SARS-green to linear peptides of protein M of SARS-CoV Urbani” value came to 0.5 and the “Binding of serum SARS-green to looped/cyclic peptides of protein M of SARS-CoV Urbani” value turned out to be 0.3. In assay [1], the “Binding of serum SARS-yellow to linear peptides of protein M of SARS-CoV Urbani” value is 0.2 and the “Binding of serum SARS-yellow to looped/cyclic peptides of protein M of SARS-CoV Urbani” value is reported as 0.7. Also, in assay [2], the “Binding of Control Serum Blood-Bank to Looped peptides of the protein M of SARS-CoV Urbani” value came out at 0.9, the “Binding of Control serum Blood-bank to linear peptides of the protein M of SARS-CoV Urbani” value is given as 1.0, the “Binding of Control serum LUMC to linear peptides of the protein M of SARS-CoV Urbani” value turned out to be 0.8 and the “Binding of Control serum LUMC to looped peptides of the protein M of SARS-CoV Urbani” value was determined as 0.8. In addition, in assay [3], the “Rabbit serum linear peptides” value amounted to 0.2 and the “Rabbit serum looped peptides” value is listed as 0.1.
Turning to PLRGTIVTRPLMESE, in assay [1], the “Binding of serum 1a to linear peptides of protein M of SARS-CoV Urbani” value was 0.8, the “Binding of serum 1b to linear peptides of protein M of SARS-CoV Urbani” value was found to be 0.7, the “Binding of serum 2 to linear peptides of protein M of SARS-CoV Urbani” value is given as 0.4 and the “Binding of serum 6 to linear peptides of protein M of SARS-CoV Urbani” value is given as 0.4. Besides, in assay [1], the “Binding of serum 37 to linear peptides of protein M of SARS-CoV Urbani” value is listed as 0.8, the “Binding of serum 62 to linear peptides of protein M of SARS-CoV Urbani” value stood at 0.7, the “Binding of serum London to linear peptides of protein M of SARS-CoV Urbani” value worked out at 0.3 and the “Binding of serum SARS-green to linear peptides of protein M of SARS-CoV Urbani” value is reported as 0.5. Further, in assay [1], the “Binding of serum SARS-yellow to linear peptides of protein M of SARS-CoV Urbani” value is recorded as 0.0; the “Recognition of the peptide by sera of SARS-CoV infected individuals, and form (linear, looped/cyclic) in which it is recognized” value was “recognized in looped/cyclic form”. Further, in assay [2], the “Binding of Control Serum Blood-Bank to Looped peptides of the protein M of SARS-CoV Urbani” value was determined as 0.5, the “Binding of Control serum Blood-bank to linear peptides of the protein M of SARS-CoV Urbani” value is given as 0.6, the “Binding of Control serum LUMC to linear peptides of the protein M of SARS-CoV Urbani” value is recorded as 0.3 and the “Binding of Control serum LUMC to looped peptides of the protein M of SARS-CoV Urbani” value is listed as 0.8. In assay [3], the “Rabbit serum linear peptides” value stood at 0.4 and the “Rabbit serum looped peptides” value turned out to be 0.4.
On to PNVQIHTIDGSSGVA, for which, in assay [1], the “Binding of serum 1a to linear peptides of protein X1 of SARS-CoV Urbani” value was found to be 0.6, the “Binding of serum 1a to looped/cyclic peptides of protein X1 of SARS-CoV Urbani” value worked out at 0.4, the “Binding of serum 1b to linear peptides of protein X1 of SARS-CoV Urbani” value turned out to be 0.4 and the “Binding of serum 1b to looped/cyclic peptides of protein X1 of SARS-CoV Urbani” value is on record as 0.3. Moreover, in assay [1], the “Binding of serum 2 to linear peptides of protein X1 of SARS-CoV Urbani” value is reported as 0.5, the “Binding of serum 2 to looped/cyclic peptides of protein X1 of SARS-CoV Urbani” value stood at 0.2, the “Binding of serum 6 to linear peptides of protein X1 of SARS-CoV Urbani” value is reported as 0.4 and the “Binding of serum 6 to looped/cyclic peptides of protein X1 of SARS-CoV Urbani” value is listed as 0.2. Moreover, in assay [1], the “Binding of serum 37 to linear peptides of protein X1 of SARS-CoV Urbani” value is 0.7, the “Binding of serum 37 to looped/cyclic peptides of protein X1 of SARS-CoV Urbani” value stood at 0.3, the “Binding of serum 62 to linear peptides of protein X1 of SARS-CoV Urbani” value is 0.6 and the “Binding of serum 62 to looped/cyclic peptides of protein X1 of SARS-CoV Urbani” value amounted to 0.3. In addition, in assay [1], the “Binding of serum London to linear peptides of protein X1 of SARS-CoV Urbani” value is on record as 0.3, the “Binding of serum London to looped/cyclic peptides of protein X1 of SARS-CoV Urbani” value came to 0.2, the “Binding of serum SARS-green to linear peptides of protein X1 of SARS-CoV Urbani” value stood at 0.2 and the “Binding of serum SARS-green to looped/cyclic peptides of protein X1 of SARS-CoV Urbani” value is recorded as 0.2. In assay [1], the “Binding of serum SARS-yellow to linear peptides of protein X1 of SARS-CoV Urbani” value is listed as 0.4 and the “Binding of serum SARS-yellow to looped/cyclic peptides of protein X1 of SARS-CoV Urbani” value amounted to 0.2. In assay [2], the “Binding of Control Serum Blood-Bank to Looped peptides” value was determined as 0.5, the “Binding of Control serum Blood-bank to linear peptides” value is 0.5, the “Binding of Control serum LUMC to linear peptides” value is reported as 0.6 and the “Binding of Control serum LUMC to looped peptides” value was determined as 0.5. In assay [3], the “Binding of a rabbit serum to linear peptides” value worked out at 0.1 and the “Binding of a rabbit serum to looped peptides” value is recorded as 0.4.
PYNSVTDTIVVTEGD: in assay [1], the “Binding of serum 1a to linear peptides of protein X1 of SARS-CoV Urbani” value stood at 0.5, the “Binding of serum 1a to looped/cyclic peptides of protein X1 of SARS-CoV Urbani” value is on record as 0.4, the “Binding of serum 1b to linear peptides of protein X1 of SARS-CoV Urbani” value came to 0.4 and the “Binding of serum 1b to looped/cyclic peptides of protein X1 of SARS-CoV Urbani” value was found to be 0.3. In assay [1], the “Binding of serum 2 to linear peptides of protein X1 of SARS-CoV Urbani” value was 0.4, the “Binding of serum 2 to looped/cyclic peptides of protein X1 of SARS-CoV Urbani” value was 0.3, the “Binding of serum 6 to linear peptides of protein X1 of SARS-CoV Urbani” value was determined as 0.4 and the “Binding of serum 6 to looped/cyclic peptides of protein X1 of SARS-CoV Urbani” value is given as 0.1. For the same sequence, in assay [1], the “Binding of serum 37 to linear peptides of protein X1 of SARS-CoV Urbani” value was determined as 0.5, the “Binding of serum 37 to looped/cyclic peptides of protein X1 of SARS-CoV Urbani” value came to 0.3, the “Binding of serum 62 to linear peptides of protein X1 of SARS-CoV Urbani” value was found to be 0.4 and the “Binding of serum 62 to looped/cyclic peptides of protein X1 of SARS-CoV Urbani” value is 0.3. Moreover, in assay [1], the “Binding of serum London to linear peptides of protein X1 of SARS-CoV Urbani” value is on record as 0.2, the “Binding of serum London to looped/cyclic peptides of protein X1 of SARS-CoV Urbani” value came to 0.2, the “Binding of serum SARS-green to linear peptides of protein X1 of SARS-CoV Urbani” value is on record as 0.2 and the “Binding of serum SARS-green to looped/cyclic peptides of protein X1 of SARS-CoV Urbani” value is given as 0.5. In assay [1], the “Binding of serum SARS-yellow to linear peptides of protein X1 of SARS-CoV Urbani” value is listed as 0.3 and the “Binding of serum SARS-yellow to looped/cyclic peptides of protein X1 of SARS-CoV Urbani” value is given as 0.4. In assay [2], the “Binding of Control Serum Blood-Bank to Looped peptides” value came out at 0.4, the “Binding of Control serum Blood-bank to linear peptides” value worked out at 0.4, the “Binding of Control serum LUMC to linear peptides” value turned out to be 0.3 and the “Binding of Control serum LUMC to looped peptides” value came out at 0.4. Also, in assay [3], the “Binding of a rabbit serum to linear peptides” value worked out at 0.1 and the “Binding of a rabbit serum to looped peptides” value came to 0.3.
